Assay results published in US9561215B2, “BAX-activating cancer therapeutics” (The University of Louisville Research Foundation Inc., priority 2014, dated 2017).

Experiments:
[1] = test system: anti-apoptotic Bcl-2 proteins, including Bcl-2, Bcl-xL, and Bcl-w; conditions: cited from earlier work
[2] = test system: Bak^−/−Bax^−/− MEF cells stably re-expressing Bax, Bak, or the empty vector; assay: Cell death by propidium iodide exclusion in MEF cells re-expressing Bax or Bak; assay type: cell-based; conditions: for rank by activity to induce Bax-dependent apoptosis: rank among the six Bax activator compounds
Protocol: (§1) Cell lines: Bak^−/−Bax^−/− murine embryonic fibroblast (MEF) cells expressing the empty vector, Bak or Bax were cultured as described previously. Human non-small cell lung carcinoma A549 and human pancreatic carcinoma Panc-1 were purchased from ATCC (Manassas, Va.). Untransformed and transformed MEF cells were kindly provided by Dr. Wei-Xing Zong. Bax^+/− and Bax^−/− HCT116 cells were obtained from Drs. Bert Vogelstein and Kenneth Kinzler. All cells were cultured at 37° C. in a 5% CO2 incubator as described previously (42). To generate A549 cells with reduced Bax expression or vector control, cells were first infected by Bax shRNA lentiviral particles or control shRNA lentiviral particles (Santa Cruz). Stable cells were obtained by culturing cells in the medium with 10 μg/ml puromycin.
Cell death analysis and Chou-Talalay synergism assay: Cell viability was measured by propidium iodide exclusion using flow cytometry (FACSCalibur, Becton Dickinson) as described previously. The synergistic effect between compound 106 and carboplatin or ABT-737 on cell viability was determined by Chou-Talalay median dose effect assay. IC50 of compound 106, carboplatin, and ABT-7373 on a tumor cell line was first determined. Different combinations of drugs at a fixed ratio higher or lower than their IC50 values were added to cells. After incubation for the indicated time, cell viability was examined and Fa was calculated as the ratio between the cell death levels of drug-treated cells and those of untreated control cells. Combination index (CI) was determined by the CompuSyn software (Biosoft, Cambridge, UK).
The inventors tested candidate agents by first determining whether cytotoxicity was dependent on Bax but not on Bak. Bax^−/−Bak^−/− murine embryonic fibroblast (MEF) cell lines stably re-expressing only Bax or Bak were established (FIG. 3).

[3] = test system: Bax^+/− and Bax^−/− HCT116 cells; assay: Cell death in HCT116 cells with or without Bax expression; assay type: cell-based, human; conditions: 48 hour incubation
Protocol: as §1
(§2) Cell death analysis and Chou-Talalay synergism assay: Cell viability was measured by propidium iodide exclusion using flow cytometry (FACSCalibur, Becton Dickinson) as described previously. […] IC50 of compound 106, carboplatin, and ABT-7373 on a tumor cell line was first determined. […] After incubation for the indicated time, cell viability was examined and Fa was calculated as the ratio between the cell death levels of drug-treated cells and those of untreated control cells. Combination index (CI) was determined by the CompuSyn software (Biosoft, Cambridge, UK). […]

[4] = test system: A549 cells with Bax shRNA or control shRNA vector; assay: Cell death in A549 cells with reduced Bax expression or control shRNA; assay type: cell-based, human; conditions: 48 hour incubation
Protocol: as §1, §2

A549 cells = assay: Chou-Talalay synergism assay in A549 cells; assay type: cell-based, human; conditions: compound 106 (80-240 μM) with carboplatin (80-240 μM), constant ratio, 48 hours
Protocol: (§3) Cell death analysis and Chou-Talalay synergism assay: Cell viability was measured by propidium iodide exclusion using flow cytometry (FACSCalibur, Becton Dickinson) as described previously. […] IC50 of compound 106, carboplatin, and ABT-7373 on a tumor cell line was first determined. […] After incubation for the indicated time, cell viability was examined and Fa was calculated as the ratio between the cell death levels of drug-treated cells and those of untreated control cells. Combination index (CI) was determined by the CompuSyn software (Biosoft, Cambridge, UK).
(§4) To explore the potential of compound 106 functioning in combination chemotherapy, the inventors investigated whether compound 106 sensitizes tumor cells to die following simultaneous treatment with a chemotherapeutic drug. Carboplatin is currently used to treat non-small-cell lung cancer and human pancreatic cancer. To investigate whether the cytotoxic effects of compound 106 and carboplatin on human tumor cells were synergistic, the inventors carried out median-effect analysis using the Chou-Talalay method. After 48 hours of treatment, the cell death levels of A549 and PANC-1 cells treated with various concentrations of compound 106 and carboplatin at a constant dose ratio were measured, and the combination index (CI) values were determined.

PANC-1 cells = assay: Chou-Talalay synergism assay in PANC-1 cells; assay type: cell-based, human; conditions: compound 106 (3.3-240 μM) with carboplatin (3.3-240 μM), constant ratio, 48 hours
Protocol: as §3, §4

Bax = Bax (Homo sapiens, UniProt Q07812); conditions: non-canonical BH3 interaction site; cited from earlier work
Chain of Bax (Q07812 whole entry, species assumed): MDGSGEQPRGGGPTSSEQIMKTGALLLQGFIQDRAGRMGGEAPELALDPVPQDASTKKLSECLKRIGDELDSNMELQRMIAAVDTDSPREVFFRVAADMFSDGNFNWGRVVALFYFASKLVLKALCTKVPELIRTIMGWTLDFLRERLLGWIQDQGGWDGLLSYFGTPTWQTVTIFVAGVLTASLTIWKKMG

Compound: CN(C)CC[C@H](CSc1ccccc1)Nc1ccc(S(=O)(=O)NC(=O)c2ccc(N3CCN(Cc4ccccc4-c4ccc(Cl)cc4)CC3)cc2)cc1[N+](=O)[O-] [ABT-737]
- binding affinity [1]: bind with high affinity

Compound: CC(C)CN1CC(OCc2cccnc2)CN(C(=O)Cc2ccc3c(c2)OCO3)CC1=O (stereo not drawn) [ZINC14531256, 4-(1,3-benzodioxol-5-ylacetyl)-1-isobutyl-6-(3-pyridinylmethoxy)-1,4-diazepan-2-one]
- rank by activity to induce Bax-dependent apoptosis [2]: 6

Compound: COc1ccccc1N1CCN(Cn2nc(-c3ccc(F)cc3)n(CC3CCCO3)c2=S)CC1 (stereo not drawn) [ZINC16076241, 5-(4-fluorophenyl)-2-[[4-(2-methoxyphenyl)piperazin-1-yl]methyl]-4-(oxolan-2-ylmethyl)-1,2,4-triazole-3-thione]
- rank by activity to induce Bax-dependent apoptosis [2]: 5

Compound: CCn1nc(C)c(CN2CCCC(N3CCN(c4ccc(OC)cc4)CC3)C2)c1C (stereo not drawn) [ZINC20110124, 1-{1-[(1-ethyl-3,5-dimethyl-1H-pyrazol-4-yl)methyl]-3-piperidinyl}-4-(4-methoxyphenyl)piperazine]
- rank by activity to induce Bax-dependent apoptosis [2]: 2

Compound: COc1ccccc1-c1nc2cc(N)cc(C(=O)NC3CCCN(Cc4ccccc4)C3)c2n1C (stereo not drawn) [ZINC 12150973, 5-amino-N-(1-benzyl-3-piperidinyl)-2-(2-methoxyphenyl)-1-methyl-1H-benzimidazole-7-carboxamide]
- rank by activity to induce Bax-dependent apoptosis [2]: 4

Compound: CSc1ccc(C2N=C3NCN(Cc4cccnc4)CN3c3nc4ccccc4n32)cc1 (stereo not drawn) [ZINC 13638227, 6-(4-(methylthio)phenyl)-2-(pyridin-3-ylmethyl)-2,3,4,6-tetrahydro-1H-benzo[4,5]imidazo[1,2-a][1,3,5]triazino[1,2-c][1,3,5]triazine]
- rank by activity to induce Bax-dependent apoptosis [2]: 3

Compound: N.N.O=C([O-])C1(C(=O)[O-])CCC1.[Pt+2] [carboplatin, cis-Diammine (1,1-cyclobutanedicarboxylato)platinum(II)]
- cell death, Bax expressing versus Bax lacking HCT116 cells [3]: Lack of Bax expression in HCT116 cells did not affect killing activities
- cell death, reduced Bax expression versus control shRNA [4]: Decrease in Bax expression did not affect killing activities

Compound: COc1cccc(Cn2nc(C(=O)N3CCCC(O)C3)c3c2CCN(Cc2ccc(C)c(C)c2)C3)c1 (stereo not drawn) [compound 106, 1-{[5-(3,4-dimethylbenzyl)-1-(3-methoxybenzyl)-4,5,6,7-tetrahydro-1H-pyrazolo[4,3-c]pyridin-3-yl]carbonyl}-3-piperidinol]
- cytotoxicity dependent on Bax but not on Bak (test of the 46 candidate agents) ([2]; MEF cell lines re-expressing only Bax or Bak, and Bax−/−Bak−/− MEFs): exhibited the highest Bax- and dose-dependent cytotoxicity
- rank by activity to induce Bax-dependent apoptosis [2]: 1
- combination index (CI) (A549 cells): smaller than 1
- combination index (CI) (PANC-1 cells): smaller than 1

Compound: CC[C@]1(O)C[C@H]2CN(CCc3c([nH]c4ccccc34)[C@@](C(=O)OC)(c3cc4c(cc3OC)N(C=O)[C@H]3[C@@](O)(C(=O)OC)[C@H](OC(C)=O)[C@]5(CC)C=CCN6CC[C@]43[C@@H]65)C2)C1 [vincristine]
- cell death, Bax expressing versus Bax lacking HCT116 cells [3]: Lack of Bax expression in HCT116 cells did not affect killing activities
- cell death, reduced Bax expression versus control shRNA [4]: Decrease in Bax expression did not affect killing activities

Compound: BAM7
- Bax binding and activation (Bax): directly binds Bax and activates Bax by triggering Bax oligomerization
